Measurements: patent US12139520B2 (priority 2020, dated 2024)
Bridge positions count the residues as written; N and C are the ends. Square brackets hold non-standard residues; d marks the D form. Peptide text beside a SMILES is read from it. Hyp = O=C(O)[C@@H]1C[C@@H](O)CN1; Cit = NC(=O)NCCC[C@H](N)C(=O)O

Assays:
hAM1 receptor = hAM1 receptor (Homo sapiens, UniProt O60895+Q16602); test: cAMP assay for in vitro receptor activation, hAM1-R; type: cell-based; details: cAMP assay, hAM1 receptor; read-out: hAM1R EC50
Method in brief: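 Stable hAM1 cells (monoclonal) plated 8000/well; buffer DPBS, 0.05% casein, 0.5 mM IBMX; cAMP read-out.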

[1] = Physical stability of peptide analogues (Thioflavin T fibrillation); type: physicochemical; details: maximum ThT signal normalized between hAMY maximum and buffer background; 40° C., shaking, four days; pH 7 per table title
Method in brief: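 1 h in 50 mM NaOAc pH 4 / 50 mM NaPi pH 7; + ThT 4 μM final; 40 °C, 700 rpm linear shake 5 min pre-read; ex 450, em 480 nm q10 min × 4 d; LOESS smoothing; max signal normalised to hAMY max vs buffer blank.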

hAMY3 receptor = biological target: T1, hAMY3 receptor (Homo sapiens, UniProt O60896+P30988); test: cAMP assay for in vitro receptor activation, hAMY3-R; type: cell-based; details: cAMP assay, hAMY3 receptor; read-out: hAMY3R EC50
T1 sequence (P30988 25-474): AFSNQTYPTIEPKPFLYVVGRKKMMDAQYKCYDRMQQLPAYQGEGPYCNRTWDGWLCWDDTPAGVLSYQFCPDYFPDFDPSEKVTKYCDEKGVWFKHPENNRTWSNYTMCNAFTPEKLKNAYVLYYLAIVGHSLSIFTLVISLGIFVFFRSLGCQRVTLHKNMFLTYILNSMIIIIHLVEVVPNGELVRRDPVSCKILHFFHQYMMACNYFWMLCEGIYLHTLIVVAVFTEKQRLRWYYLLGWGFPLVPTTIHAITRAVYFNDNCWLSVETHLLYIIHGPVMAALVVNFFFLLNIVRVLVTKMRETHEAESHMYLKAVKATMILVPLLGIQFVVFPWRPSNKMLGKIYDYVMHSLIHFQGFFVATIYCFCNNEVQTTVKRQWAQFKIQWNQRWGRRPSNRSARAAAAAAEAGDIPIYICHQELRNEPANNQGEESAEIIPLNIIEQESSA
T1 sequence (O60896 24-148 partner): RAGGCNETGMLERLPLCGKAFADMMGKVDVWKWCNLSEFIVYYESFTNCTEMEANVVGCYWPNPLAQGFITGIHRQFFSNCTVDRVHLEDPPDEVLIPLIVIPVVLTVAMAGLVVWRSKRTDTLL
Method in brief: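 Graded compound concentrations were applied for 30 min at room temperature to stably hAMY3-expressing cells in DPBS, 0.05% casein, 0.5 mM IBMX; cAMP detected by TR-FRET.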

Chain of hAM1 receptor (Q16602 23-461): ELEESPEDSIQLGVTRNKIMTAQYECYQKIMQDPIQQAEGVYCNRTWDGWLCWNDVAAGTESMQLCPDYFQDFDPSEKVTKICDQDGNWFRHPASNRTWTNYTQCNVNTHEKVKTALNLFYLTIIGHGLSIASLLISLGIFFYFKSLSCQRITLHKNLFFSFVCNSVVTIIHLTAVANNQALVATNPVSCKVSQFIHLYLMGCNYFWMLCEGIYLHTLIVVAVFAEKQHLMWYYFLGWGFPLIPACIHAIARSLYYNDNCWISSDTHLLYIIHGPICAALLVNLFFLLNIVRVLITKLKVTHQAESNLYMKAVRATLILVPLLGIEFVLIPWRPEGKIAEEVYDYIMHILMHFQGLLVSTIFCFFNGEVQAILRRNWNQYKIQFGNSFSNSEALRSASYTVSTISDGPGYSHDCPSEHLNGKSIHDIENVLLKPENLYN
Chain of hAM1 receptor (O60895 43-175 partner): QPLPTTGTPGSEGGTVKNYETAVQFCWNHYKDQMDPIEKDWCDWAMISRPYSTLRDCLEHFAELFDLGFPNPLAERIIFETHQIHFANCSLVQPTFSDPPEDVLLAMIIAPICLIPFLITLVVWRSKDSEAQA

SMILES | EC50 (hAM1 receptor) [nM] | Max ThT signal (%) [1] [%] | EC50 (hAMY3 receptor) [nM]
CC[C@H](C)[C@H](NC(=O)[C@H](CCC(N)=O)NC(=O)[C@H](Cc1c[nH]cn1)NC(=O)[C@H](C)NC(=O)[C@H](CC(C)C)NC(=O)[C@H](CCCNC(N)=O)NC(=O)[C@H](CCC(N)=O)NC(=O)[C@@H](NC(=O)[C@@H](NC(=O)[C@@H]1CSSC[C@H](NC(=O)[C@@H](N)CCCCN)C(=O)N[C@@H](CC(N)=O)C(=O)N[C@@H]([C@@H](C)O)C(=O)N[C@@H](C)C(=O)N[C@@H]([C@@H](C)O)C(=O)N1)[C@@H](C)O)C(C)C)C(=O)N[C@@H](Cc1ccc(O)cc1)C(=O)N[C@@H](CCC(N)=O)C(=O)N[C@@H](Cc1ccccc1)C(=O)N[C@@H](CC(=O)O)C(=O)N[C@@H](CCCCN)C(=O)N[C@@H](CC(=O)O)C(=O)N[C@@H](CCCCN)C(=O)N[C@@H](CC(=O)O)C(=O)N[C@@H](CC(N)=O)C(=O)N[C@H](C(=O)N[C@@H](C)C(=O)N1CCC[C@H]1C(=O)N1CCC[C@H]1C(=O)N[C@H](C(=O)N[C@@H](CC(N)=O)C(=O)N[C@H](C(=O)NCC(=O)N[C@@H](CO)C(=O)N[C@@H](CC(N)=O)C(=O)NCC(=O)N1C[C@H](O)C[C@H]1C(N)=O)C(C)C)[C@@H](C)O)C(C)C [compound 265] (H-KCNTATCTVQ[Cit]LAHQIYQFDKDKDNVAPPTNVGSNG[Hyp]-NH2; disulfide 2-7; N-terminus assumed) | > 5000 | 26.550 | 0.03
CC[C@H](C)[C@H](NC(=O)[C@H](CCC(N)=O)NC(=O)[C@H](Cc1c[nH]cn1)NC(=O)[C@H](C)NC(=O)[C@H](CC(C)C)NC(=O)[C@H](CCCNC(=N)N)NC(=O)[C@H](CCC(N)=O)NC(=O)[C@@H](NC(=O)[C@@H](NC(=O)[C@@H]1CSSC[C@H](NC(=O)[C@@H](N)CCCCN)C(=O)N[C@@H](CC(N)=O)C(=O)N[C@@H]([C@@H](C)O)C(=O)N[C@@H](C)C(=O)N[C@@H]([C@@H](C)O)C(=O)N1)[C@@H](C)O)C(C)C)C(=O)N[C@@H](Cc1ccc(O)cc1)C(=O)N[C@@H](CCC(N)=O)C(=O)N[C@@H](Cc1ccccc1)C(=O)N[C@H](C(=O)N[C@@H](C)C(=O)N[C@@H](CCCCN)C(=O)N[C@@H](CC(=O)O)C(=O)N[C@@H](CCCCN)C(=O)N[C@@H](CC(=O)O)C(=O)N[C@@H](CC(N)=O)C(=O)N[C@H](C(=O)N[C@@H](C)C(=O)N1CCC[C@H]1C(=O)N1CCC[C@H]1C(=O)N[C@H](C(=O)N[C@@H](CC(N)=O)C(=O)N[C@H](C(=O)NCC(=O)N[C@@H](CO)C(=O)N[C@@H](CC(N)=O)C(=O)NCC(=O)N1C[C@H](O)C[C@H]1C(N)=O)C(C)C)[C@@H](C)O)C(C)C)[C@@H](C)O [compound 24] (H-KCNTATCTVQRLAHQIYQFTAKDKDNVAPPTNVGSNG[Hyp]-NH2; disulfide 2-7; N-terminus assumed) | > 5000 | 6.800 | 0.008
CC[C@H](C)[C@H](NC(=O)[C@H](CCC(N)=O)NC(=O)[C@H](Cc1c[nH]cn1)NC(=O)[C@H](C)NC(=O)[C@H](CC(C)C)NC(=O)[C@H](CCCNC(N)=O)NC(=O)[C@H](CCC(N)=O)NC(=O)[C@@H](NC(=O)[C@@H](NC(=O)[C@@H]1CSSC[C@H](NC(=O)[C@@H](N)CCCCN)C(=O)N[C@@H](CC(N)=O)C(=O)N[C@@H]([C@@H](C)O)C(=O)N[C@@H](C)C(=O)N[C@@H]([C@@H](C)O)C(=O)N1)[C@@H](C)O)C(C)C)C(=O)N[C@@H](Cc1ccc(O)cc1)C(=O)N[C@@H](CCC(N)=O)C(=O)N[C@@H](Cc1ccccc1)C(=O)N[C@H](C(=O)N[C@@H](CC(=O)O)C(=O)N[C@@H](CCCCN)C(=O)N[C@@H](CC(=O)O)C(=O)N[C@@H](CCCCN)C(=O)N[C@@H](CC(=O)O)C(=O)N[C@@H](CC(N)=O)C(=O)N[C@H](C(=O)N[C@@H](C)C(=O)N1CCC[C@H]1C(=O)N[C@@H](C)C(=O)N[C@H](C(=O)N[C@@H](CC(N)=O)C(=O)N[C@H](C(=O)NCC(=O)N[C@@H](CO)C(=O)N[C@@H](CC(N)=O)C(=O)NCC(=O)N1C[C@H](O)C[C@H]1C(N)=O)C(C)C)[C@@H](C)O)C(C)C)[C@@H](C)O [compound 252] (H-KCNTATCTVQ[Cit]LAHQIYQFTDKDKDNVAPATNVGSNG[Hyp]-NH2; disulfide 2-7; N-terminus assumed) | > 5000 | 27.550 | 0.006

The remaining lines, values ahead:

EC50 (hAM1 receptor) [nM] | Max ThT signal (%) [1] [%] | EC50 (hAMY3 receptor) [nM] | SMILES
> 5000 | 14.600 | 0.008 | CC[C@H](C)[C@H](NC(=O)[C@H](CCC(N)=O)NC(=O)[C@H](Cc1c[nH]cn1)NC(=O)[C@H](C)NC(=O)[C@H](CC(C)C)NC(=O)[C@H](Cc1c[nH]c2ccccc12)NC(=O)[C@H](CCC(N)=O)NC(=O)[C@@H](NC(=O)[C@@H](NC(=O)[C@@H]1CSSC[C@H](NC(=O)[C@@H](N)CCCCN)C(=O)N[C@@H](CC(N)=O)C(=O)N[C@@H]([C@@H](C)O)C(=O)N[C@@H](C)C(=O)N[C@@H]([C@@H](C)O)C(=O)N1)[C@@H](C)O)C(C)C)C(=O)N[C@@H](Cc1ccc(O)cc1)C(=O)N[C@@H](CCC(N)=O)C(=O)N[C@@H](Cc1ccccc1)C(=O)N[C@H](C(=O)N[C@@H](CC(=O)O)C(=O)N[C@@H](CCCCN)C(=O)N[C@@H](CC(=O)O)C(=O)N[C@@H](CCCCN)C(=O)N[C@@H](CC(=O)O)C(=O)N[C@@H](CC(N)=O)C(=O)N[C@H](C(=O)N[C@@H](C)C(=O)N1CCC[C@H]1C(=O)N1CCC[C@H]1C(=O)N[C@H](C(=O)N[C@@H](CC(N)=O)C(=O)N[C@H](C(=O)NCC(=O)N[C@@H](CO)C(=O)N[C@@H](CC(N)=O)C(=O)NCC(=O)N1C[C@H](O)C[C@H]1C(N)=O)C(C)C)[C@@H](C)O)C(C)C)[C@@H](C)O [compound 330] (H-KCNTATCTVQWLAHQIYQFTDKDKDNVAPPTNVGSNG[Hyp]-NH2; disulfide 2-7; N-terminus assumed)
> 5000 | 19.850 | 0.02 | CC[C@H](C)[C@H](NC(=O)[C@H](CCC(N)=O)NC(=O)[C@H](Cc1c[nH]cn1)NC(=O)[C@H](C)NC(=O)[C@H](CC(C)C)NC(=O)[C@H](CCCNC(N)=O)NC(=O)[C@H](CCC(N)=O)NC(=O)[C@@H](NC(=O)[C@@H](NC(=O)[C@@H]1CSSC[C@H](NC(=O)CN)C(=O)N[C@@H](CCCNC(=N)N)C(=O)N[C@@H](Cc2ccccc2)C(=O)NCC(=O)N[C@@H]([C@@H](C)O)C(=O)N1)[C@@H](C)O)C(C)C)C(=O)N[C@@H](Cc1ccc(O)cc1)C(=O)N[C@@H](CCC(N)=O)C(=O)N[C@@H](Cc1ccccc1)C(=O)N[C@H](C(=O)N[C@@H](CC(=O)O)C(=O)N[C@@H](CCCCN)C(=O)N[C@@H](CC(=O)O)C(=O)N[C@@H](CCCCN)C(=O)N[C@@H](CC(=O)O)C(=O)N[C@@H](CC(N)=O)C(=O)N[C@H](C(=O)N[C@@H](C)C(=O)N1CCC[C@H]1C(=O)N[C@@H](CCCNC(=N)N)C(=O)N[C@H](C(=O)N[C@@H](CCCCN)C(=O)N[C@H](C(=O)N[C@@H](CO)C(=O)N1CCC[C@H]1C(=O)N[C@@H](CC(N)=O)C(=O)NCC(=O)N1C[C@H](O)C[C@H]1C(N)=O)[C@@H](C)CC)[C@@H](C)O)C(C)C)[C@@H](C)O [compound 275] (H-GCRFGTCTVQ[Cit]LAHQIYQFTDKDKDNVAPRTKISPNG[Hyp]-NH2; disulfide 2-7; N-terminus assumed)
